In patent publication US10501461B2, “Tyrosine amide derivatives as Rho-kinase inhibitors” (CHIESI FARMACEUTICI S.P.A., priority 2017, dated 2019):

How the values were obtained:
[1] = target: Rho kinase 1 (ROCK-I) (Homo sapiens, UniProt Q13464); assay: In vitro Rho kinase inhibitory activity assay (ADP-Glo), Rho kinase 1; format: biochemical; conditions: 10 μM ATP, 25° C., expressed as range of activity
Procedure, shortened: (§1)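 First, compound was incubated with either Rho kinase isoform for 30 mins at 25 °C; next, ATP was added to 10 μM final with 2.5 μM Myelin Basic Protein substrate; after 1 hour, ADP formed was detected by ADP-Glo luminescence. Dose-response data yielded IC50, converted to Ki using Cheng-Prusoff.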

[2] = target: Rho kinase 2 (ROCK-II) (Homo sapiens, UniProt O75116); assay: In vitro Rho kinase inhibitory activity assay (ADP-Glo), Rho kinase 2; format: biochemical; conditions: 10 μM ATP, 25° C., expressed as range of activity
Procedure, shortened: as §1

Chain of Rho kinase 1 (ROCK-I) (Q13464 whole entry, canonical isoform): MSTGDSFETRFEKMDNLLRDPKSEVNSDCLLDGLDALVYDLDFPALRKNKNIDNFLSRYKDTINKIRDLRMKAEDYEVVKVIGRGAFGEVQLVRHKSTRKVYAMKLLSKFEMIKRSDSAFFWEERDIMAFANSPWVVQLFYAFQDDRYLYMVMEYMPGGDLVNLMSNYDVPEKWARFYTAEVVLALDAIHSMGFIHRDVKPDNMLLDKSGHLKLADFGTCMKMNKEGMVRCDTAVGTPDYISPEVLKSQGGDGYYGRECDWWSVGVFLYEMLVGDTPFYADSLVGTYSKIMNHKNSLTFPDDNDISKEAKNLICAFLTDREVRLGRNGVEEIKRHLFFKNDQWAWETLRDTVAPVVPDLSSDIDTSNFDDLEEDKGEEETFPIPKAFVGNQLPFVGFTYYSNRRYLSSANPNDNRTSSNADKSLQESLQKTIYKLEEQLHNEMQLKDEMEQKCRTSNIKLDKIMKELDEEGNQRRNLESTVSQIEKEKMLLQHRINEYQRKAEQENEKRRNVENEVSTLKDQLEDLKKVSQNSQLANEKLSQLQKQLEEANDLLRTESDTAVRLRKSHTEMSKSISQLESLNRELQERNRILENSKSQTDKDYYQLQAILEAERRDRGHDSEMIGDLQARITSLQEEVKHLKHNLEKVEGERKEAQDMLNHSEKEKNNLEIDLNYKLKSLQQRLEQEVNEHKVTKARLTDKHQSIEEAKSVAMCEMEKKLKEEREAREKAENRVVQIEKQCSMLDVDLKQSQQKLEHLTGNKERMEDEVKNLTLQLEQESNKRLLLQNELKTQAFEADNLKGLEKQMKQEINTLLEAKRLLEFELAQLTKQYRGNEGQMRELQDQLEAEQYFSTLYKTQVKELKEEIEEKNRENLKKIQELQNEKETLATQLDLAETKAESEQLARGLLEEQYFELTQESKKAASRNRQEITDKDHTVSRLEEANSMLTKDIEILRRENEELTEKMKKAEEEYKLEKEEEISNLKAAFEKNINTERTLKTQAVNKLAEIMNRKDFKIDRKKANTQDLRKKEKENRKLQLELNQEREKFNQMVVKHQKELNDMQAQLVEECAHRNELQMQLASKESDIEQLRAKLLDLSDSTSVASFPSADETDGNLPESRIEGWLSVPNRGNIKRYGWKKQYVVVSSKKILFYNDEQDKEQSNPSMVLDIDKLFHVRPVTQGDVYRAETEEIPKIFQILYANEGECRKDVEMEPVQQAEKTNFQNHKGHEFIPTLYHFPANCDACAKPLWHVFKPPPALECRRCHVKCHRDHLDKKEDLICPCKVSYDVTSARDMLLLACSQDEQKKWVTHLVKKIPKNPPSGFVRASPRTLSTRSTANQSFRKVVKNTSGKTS
Chain of Rho kinase 2 (ROCK-II) (O75116 whole entry): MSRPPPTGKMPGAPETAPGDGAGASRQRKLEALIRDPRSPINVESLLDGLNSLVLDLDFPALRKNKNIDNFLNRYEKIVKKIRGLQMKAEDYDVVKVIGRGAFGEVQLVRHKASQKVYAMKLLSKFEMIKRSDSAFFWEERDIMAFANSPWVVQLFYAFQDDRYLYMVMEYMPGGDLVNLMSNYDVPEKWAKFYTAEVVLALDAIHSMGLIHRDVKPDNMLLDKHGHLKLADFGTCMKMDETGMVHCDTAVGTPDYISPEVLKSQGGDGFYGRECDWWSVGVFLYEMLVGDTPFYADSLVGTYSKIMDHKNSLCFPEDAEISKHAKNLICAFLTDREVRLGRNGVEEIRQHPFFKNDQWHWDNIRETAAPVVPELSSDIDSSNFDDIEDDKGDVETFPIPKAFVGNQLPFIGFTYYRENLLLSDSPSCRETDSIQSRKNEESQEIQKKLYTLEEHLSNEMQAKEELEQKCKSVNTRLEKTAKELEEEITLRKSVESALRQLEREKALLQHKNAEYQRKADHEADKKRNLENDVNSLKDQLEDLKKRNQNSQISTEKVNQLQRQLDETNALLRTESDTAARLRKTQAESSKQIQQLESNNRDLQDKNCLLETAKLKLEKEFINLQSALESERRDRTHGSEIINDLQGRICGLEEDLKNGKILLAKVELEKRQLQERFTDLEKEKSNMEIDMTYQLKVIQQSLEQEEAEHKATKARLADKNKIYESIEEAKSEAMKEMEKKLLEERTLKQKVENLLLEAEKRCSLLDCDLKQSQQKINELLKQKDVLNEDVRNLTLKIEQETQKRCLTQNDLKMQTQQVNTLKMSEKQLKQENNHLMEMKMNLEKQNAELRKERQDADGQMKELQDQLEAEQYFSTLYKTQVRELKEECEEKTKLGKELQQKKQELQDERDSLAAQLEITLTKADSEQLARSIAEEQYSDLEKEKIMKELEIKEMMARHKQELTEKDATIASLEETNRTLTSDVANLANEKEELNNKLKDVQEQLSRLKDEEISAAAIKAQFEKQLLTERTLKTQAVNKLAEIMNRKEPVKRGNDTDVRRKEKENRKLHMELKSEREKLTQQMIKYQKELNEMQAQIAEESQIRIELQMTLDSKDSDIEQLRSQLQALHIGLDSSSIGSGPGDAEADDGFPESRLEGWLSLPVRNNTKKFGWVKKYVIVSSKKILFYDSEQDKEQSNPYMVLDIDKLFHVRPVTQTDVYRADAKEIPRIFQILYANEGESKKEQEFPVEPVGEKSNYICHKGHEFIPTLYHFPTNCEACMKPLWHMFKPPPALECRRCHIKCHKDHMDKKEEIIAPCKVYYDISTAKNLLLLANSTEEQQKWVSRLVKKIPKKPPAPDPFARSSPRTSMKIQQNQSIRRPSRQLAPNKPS

| Ki [1] [nM] | Ki [2] [nM] | Structure (SMILES) |
| --- | --- | --- |
| < 3 | < 3 | Cc1c[nH]c2nccc(Oc3ccc(C[C@@H](N)C(=O)Nc4ccccc4)cc3F)c12 [Example 149, (R)-2-amino-3-(3-fluoro-4-((3-methyl-1H-pyrrolo[2,3-b]pyridin-4-yl)oxy)phenyl)-N-phenylpropanamide] |
| 3 to 30 | 3 to 30 | CC(N)(Cc1ccc(Oc2ccnc3[nH]ccc23)cc1)C(=O)NC1CCCCC1 (stereo not shown) [Example 150, 3-(4-((1H-pyrrolo[2,3-b]pyridin-4-yl)oxy)phenyl)-2-amino-N-cyclohexyl-2-methylpropanamide] |
| > 30 | > 30 | CC(N)(Cc1ccc(Oc2ccnc3[nH]ccc23)cc1)C(=O)NC1CCOCC1 (stereo not shown) [Example 151, 3-(4-((1H-pyrrolo[2,3-b]pyridin-4-yl)oxy)phenyl)-2-amino-2-methyl-N-(tetrahydro-2H-pyran-4-yl)propanamide] |
| < 3 | < 3 | Cc1c[nH]c2nccc(Oc3ccc(C[C@H](N)C(=O)N4CCNCC4)cc3F)c12 [Example 152, (S)-2-amino-3-(3-fluoro-4-((3-methyl-1H-pyrrolo[2,3-b]pyridin-4-yl)oxy)phenyl)-1-(piperazin-1-yl)propan-1-one] |
| < 3 | < 3 | Cc1c[nH]c2nccc(Oc3ccc(C[C@H](N)C(=O)N4CCN(Cc5ccnnc5)CC4)cc3F)c12 [Example 153, (S)-2-amino-3-(3-fluoro-4-((3-methyl-1H-pyrrolo[2,3-b]pyridin-4-yl)oxy)phenyl)-1-(4-(pyridazin-4-ylmethyl)piperazin-1-yl)propan-1-one] |
| < 3 | < 3 | CSc1nccc(CN2CCN(C(=O)[C@@H](N)Cc3ccc(Oc4ccnc5[nH]cc(C)c45)c(F)c3)CC2)n1 [Example 154, (S)-2-amino-3-(3-fluoro-4-((3-methyl-1H-pyrrolo[2,3-b]pyridin-4-yl)oxy)phenyl)-1-(4-((2-(methylthio)pyrimidin-4-yl)methyl)piperazin-1-yl)propan-1-one] |
| < 3 | < 3 | Cc1c[nH]c2nccc(Oc3ccc(C[C@H](N)C(=O)N4CCN(Cc5cnccn5)CC4)cc3F)c12 [Example 155, (S)-2-amino-3-(3-fluoro-4-((3-methyl-1H-pyrrolo[2,3-b]pyridin-4-yl)oxy)phenyl)-1-(4-(pyrazin-2-ylmethyl)piperazin-1-yl)propan-1-one] |
| < 3 | < 3 | Cc1c[nH]c2nccc(Oc3ccc(C[C@H](N)C(=O)N4CCN(Cc5nccn5C)CC4)cc3F)c12 [Example 156, (S)-2-amino-3-(3-fluoro-4-((3-methyl-1H-pyrrolo[2,3-b]pyridin-4-yl)oxy)phenyl)-1-(4-((1-methyl-1H-imidazol-2-yl)methyl)piperazin-1-yl)propan-l-one] |
| < 3 | < 3 | Cc1nc(CN2CCN(C(=O)[C@@H](N)Cc3ccc(Oc4ccnc5[nH]cc(C)c45)c(F)c3)CC2)cs1 [Example 157, (S)-2-amino-3-(3-fluoro-4-((3-methyl-1H-pyrrolo[2,3-b]pyridin-4-yl)oxy)phenyl)-1-(4-((2-methylthiazol-4-yl)methyl)piperazin-1-yl)propan-1-one] |
| < 3 | < 3 | Cc1c[nH]c2nccc(Oc3ccc(C[C@H](N)C(=O)N4CCN(Cc5cncn5C)CC4)cc3F)c12 [Example 158, (S)-2-amino-3-(3-fluoro-4--((3-methyl-1H-pyrrolo[2,3-b]pyridin-4-yl)oxy)phenyl)-1-(4-((1-methyl-1H-imidazol-5-yl)methyl)piperazin-1-yl)propan-1-one] |
| < 3 | < 3 | Cc1c[nH]c2nccc(Oc3ccc(C[C@H](N)C(=O)N4CCN(Cc5cnc6ccccc6n5)CC4)cc3F)c12 [Example 159, (S)-2-amino-3-(3-fluoro-4-((3-methyl-1H-pyrrolo[2,3-b]pyridin-4-yl)oxy)phenyl)-1-(4-(quinoxalin-2-ylmethyl)piperazin-1-yl)propan-1-one] |
| < 3 | < 3 | Cc1c[nH]c2nccc(Oc3ccc(C[C@H](N)C(=O)N4CCN(Cc5ccc(OCCCN(C)C)cc5)CC4)cc3F)c12 [Example 160, (S)-2-amino-1-(4-(4-(3-(dimethylamino)propoxy)benzyl)piperazin-1-yl)-3-(3-fluoro-4-((3-methyl-1H-pyrrolo[2,3-b]pyridin-4-yl)oxy)phenyl)propan-1-one] |
| < 3 | < 3 | Cc1c[nH]c2nccc(Oc3ccc(C[C@H](N)C(=O)N4CCN(CC5CCN(S(C)(=O)=O)CC5)CC4)cc3F)c12 [Example 161, (S)-2-amino-3-(3-fluoro-4-((3-methyl-1H-pyrrolo[2,3-b]pyridin-4-yl)oxy)phenyl)-1-(4-((1-(methylsulfonyl)piperidin-4-yl)methyl)piperazin-1-yl)propan-1-one] |
| < 3 | < 3 | Cc1c[nH]c2nccc(Oc3ccc(C[C@H](N)C(=O)N4CCN(Cc5cncnc5)CC4)cc3F)c12 [Example 162, (S)-2-amino-3-(3-fluoro-4-((3-methyl-1H-pyrrolo[2,3-b]pyridin-4-yl)oxy)phenyl)-1-(4-(pyrimidin-5-ylmethyl)piperazin-1-yl)propan-1-one] |
| < 3 | < 3 | Cc1c[nH]c2nccc(Oc3ccc(C[C@H](N)C(=O)N4CCN(Cc5cnn(C)c5)CC4)cc3F)c12 [Example 163, (S)-2-amino-3-(3-fluoro-4-((3-methyl-1H-pyrrolo[2,3-b]pyridin-4-yl)oxy)phenyl)-1-(4-((1-methyl-1H-pyrazol-4-yl)methyl)piperazin-1-yl)propan-1-one] |
| < 3 | < 3 | Cc1c[nH]c2nccc(Oc3ccc(C[C@H](N)C(=O)N4CCN(Cc5csnn5)CC4)cc3F)c12 [Example 164, (S)-1-(4-((1,2,3-thiadiazol-4-yl)methyl)piperazin-1-yl)-2-amino-3-(3-fluoro-4-((3-methyl-1H-pyrrolo[2,3-b]pyridin-4-yl)oxy)phenyl)propan-1-one] |
| < 3 | < 3 | CNC(=O)c1cccc(CN2CCN(C(=O)[C@@H](N)Cc3ccc(Oc4ccnc5[nH]cc(C)c45)c(F)c3)CC2)c1 [Example 165, (S)-3-((4-(2-amino-3-(3-fluoro-4-((3-methyl-1H-pyrrolo[2,3-b]pyridin-4-yl)oxy)phenyl)propanoyl)piperazin-1-yl)methyl)-N-methylbenzamide] |
| < 3 | < 3 | CNC(=O)c1ccc(CN2CCN(C(=O)[C@@H](N)Cc3ccc(Oc4ccnc5[nH]cc(C)c45)c(F)c3)CC2)o1 [Example 166, (S)-5-((4-(2-amino-3-(3-fluoro-4-((3-methyl-1H-pyrrolo[2,3-b]pyridin-4-yl)oxy)phenyl)propanoyl)piperazin-1-yl)methyl)-N-methylfuran-2-carboxamide] |
| < 3 | < 3 | Cc1c[nH]c2nccc(Oc3ccc(C[C@H](N)C(=O)N4CCN(C(=O)c5ccccc5)CC4)cc3F)c12 [Example 167, (S)-2-amino-1-(4-benzoylpiperazin-1-yl)-3-(3-fluoro-4-((3-methyl-1H-pyrrolo[2,3-b]pyridin-4-yl)oxy)phenyl)propan-1-one] |
| < 3 | < 3 | Cc1c[nH]c2nccc(Oc3ccc(C[C@H](N)C(=O)N4CCN(C(=O)C5CCCCC5)CC4)cc3F)c12 [Example 168, (S)-2-amino-1-(4-(cyclohexanecarbonyl)piperazin-1-yl)-3-(3-fluoro-4-((3-methyl-1H-pyrrolo[2,3-b]pyridin-4-yl)oxy)phenyl)propan-1-one] |
| < 3 | < 3 | Cc1c[nH]c2nccc(Oc3ccc(C[C@H](N)C(=O)N4CCN(C(=O)Cc5ccccc5)CC4)cc3F)c12 [Example 169, (S)-2-amino-3-(3-fluoro-4-((3-methyl-1H-pyrrolo[2,3-b]pyridin-4-yl)oxy)phenyl)-1-(4-(2-phenylacetyl-)piperazin-1-yl)propan-1-one] |
| < 3 | < 3 | Cc1c[nH]c2nccc(Oc3ccc(C[C@H](N)C(=O)N4CCN(C(=O)C5CC5)CC4)cc3F)c12 [Example 170, (S)-2-amino-1-(4-(cyclopropanecarbonyl)piperazin-1-yl)-3-(3-fluoro-4-((3-methyl-1H-pyrrolo[2,3-b]pyridin-4-yl)oxy)phenyl)propan-1-one] |
| 3 to 30 | 3 to 30 | Cc1c[nH]c2nccc(Oc3ccc(C[C@H](N)C(=O)N4CCN(C(=O)C5CCN(C)CC5)CC4)cc3F)c12 [Example 171, (S)-2-amino-3-(3-fluoro-4-((3-methyl-1H-pyrrolo[2,3-b]pyridin-4-yl)oxy)phenyl)-1-(4-(1-methylpiperidine-4-carbonyl)piperazin-1-yl)propan-1-one] |
| < 3 | < 3 | Cc1c[nH]c2nccc(Oc3ccc(C[C@H](N)C(=O)N4CCN(C(=O)c5ccc(CN(C)C)cc5)CC4)cc3F)c12 [Example 172, (S)-2-amino-1-(4-(4-((dimethylamino)methyl)benzoyl)piperazin-1-yl)-3-(3-fluoro-4-((3-methyl-1H-pyrrolo[2,3-b]pyridin-4-yl)oxy)phenyl)propan-1-one] |
| < 3 | < 3 | Cc1c[nH]c2nccc(Oc3ccc(C[C@H](N)C(=O)N4CCN(C(=O)c5cccc(CN(C)C)c5)CC4)cc3F)c12 [Example 173, (S)-2-amino-1-(4-(3-((dimethylamino)methyl)benzoyl)piperazin-1-yl)-3-(3-fluoro-4-((3-methyl-1H-pyrrolo[2,3-b]pyridin-4-yl)oxy)phenyl)propan-1-one] |
| < 3 | < 3 | Cc1c[nH]c2nccc(Oc3ccc(C[C@H](N)C(=O)N4CCN(C(=O)c5cccnc5)CC4)cc3F)c12 [Example 174, (S)-2-amino-3-(3-fluoro-4-((3-methyl-1H-pyrrolo[2,3-b]pyridin-4-yl)oxy)phenyl)-1-(4-nicotinoylpiperazin-1-yl)propan-1-one] |
